{
  "source": "paper PMC3756492",
  "about": "(Journal of medicinal chemistry, 2010)",
  "key": {"[1]": {"target": "DAT (Macaca fascicularis, UniProt Q9GJT6)", "sequence (Q9GJT6 whole entry)": "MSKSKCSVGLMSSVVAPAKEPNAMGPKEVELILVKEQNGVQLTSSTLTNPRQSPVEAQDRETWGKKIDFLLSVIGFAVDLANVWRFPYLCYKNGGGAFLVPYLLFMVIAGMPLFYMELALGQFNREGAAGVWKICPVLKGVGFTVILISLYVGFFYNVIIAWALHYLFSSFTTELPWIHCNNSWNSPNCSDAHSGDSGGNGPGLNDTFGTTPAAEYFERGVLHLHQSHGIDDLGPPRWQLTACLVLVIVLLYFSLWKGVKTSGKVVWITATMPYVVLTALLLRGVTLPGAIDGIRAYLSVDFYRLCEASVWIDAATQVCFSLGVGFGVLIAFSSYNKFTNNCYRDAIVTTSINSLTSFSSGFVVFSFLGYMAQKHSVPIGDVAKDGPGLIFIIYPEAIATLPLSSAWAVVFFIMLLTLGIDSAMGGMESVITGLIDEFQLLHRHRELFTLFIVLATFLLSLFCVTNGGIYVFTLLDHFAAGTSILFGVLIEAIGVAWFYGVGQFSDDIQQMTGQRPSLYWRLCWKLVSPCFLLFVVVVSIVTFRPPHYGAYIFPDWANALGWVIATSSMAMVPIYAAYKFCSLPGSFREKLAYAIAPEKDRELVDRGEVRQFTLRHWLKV", "assay": "MicroPET imaging in anesthetized cynomolgus monkeys", "format": "in vivo", "settings": "anesthetized cynomolgus monkey"}, "[2]": {"tested_on": "DAT", "assay": "HRRT PET imaging in an awake rhesus monkey", "format": "in vivo", "settings": "HRRT PET images"}},
  "data": [
    {"smiles": "COC(=O)C1C(c2ccc(F)cc2)CC2CCC1N2C/C=C/C[18F]", "note": "(stereo not drawn) [[^18F]9, A-((E)-4-[^18F]fluorobut-2-en-1-yl)-2β-carbomethoxy-3β-(4′-fluorophenyl)nortropane]", "values": [
      {"measurement": "Displacement of radiotracer in chase study", "setting": "[1]; 19 (RTI-113•HCl) 0.3 mg/kg at 90 min post-injection", "value": "complete displacement"},
      {"measurement": "Time to peak uptake in the putamen", "setting": "[1]; microPET baseline", "value": "≤ 20", "unit": "min"},
      {"measurement": "Time to peak uptake in the substantia nigra", "setting": "[1]; microPET baseline", "value": "≤ 10", "unit": "min"},
      {"measurement": "Defluorination (radioactivity in the skull)", "setting": "[1]; microPET images", "value": "low degree of defluorination"},
      {"measurement": "Defluorination (visualization of the skull)", "setting": "[2]", "value": "some degree of defluorination"}
    ]}
  ]
}
